Data: patent US20250152574A1 (BIOGEN MA INC., priority 2022, published 2025)

These compounds were tested against T1, EBP (Homo sapiens, UniProt Q15125) (assay: EBP Functional Assay (EBP immunoaffinity LC-MS assay)). Settings: HEK293T cells as source of EBP enzyme; substrate zymosterol-d5, 37° C. for 4 h; percent conversion to dehydrolathosterol-d5 by LC-APCI MRM MS.
T1 construct: HEK293T cells were utilized as the source of EBP enzyme; endogenous in cells; host or cells: HEK293T
Type: biochemical
Procedure: The EBP immunoaffinity (IA) LC-MS assay measures the potency of small molecule inhibitors of EBP by quantifying their concentration-dependent changes in the enzyme's substrate and product using liquid chromatography atmospheric pressure chemical ionization multiple reaction monitoring mass spectrometry (LC-APCI MRM MS). HEK293T cells were utilized as the source of EBP enzyme. The enzyme was incubated with the small molecule inhibitors at variable concentrations for 30 min. Deuterated form of EBP substrate, zymosterol-d5 (Avanti Polar Lipids, Cat #700068P-1 mg), was then added and the plate was incubated at 37° C. for 4 h. Finally, the sterol isomers were extracted and injected to LC-APCI MRM MS. MRM transition used for the quantification for both zymosterol and […] (substrate and product of EBP enzymatic reaction, respectively) is 372.3-203.2, CE 30 and DP 80 in positive ion mode. Percent conversion of the zymosterol-d5 to dehydrolathosterol-d5 was used to derive IC50 curves. Tasin-1 (1′-[(4-Methoxyphenyl)sulfonyl]-4-methyl-1,4′-bipiperidine, CAS 792927-06-1) was used as the reference small molecule inhibitor.
Percent conversion versus the compound concentration data were fit to the following 4-parameter logistic model to generate IC50 curves: […]

T1 sequence (Q15125 whole entry): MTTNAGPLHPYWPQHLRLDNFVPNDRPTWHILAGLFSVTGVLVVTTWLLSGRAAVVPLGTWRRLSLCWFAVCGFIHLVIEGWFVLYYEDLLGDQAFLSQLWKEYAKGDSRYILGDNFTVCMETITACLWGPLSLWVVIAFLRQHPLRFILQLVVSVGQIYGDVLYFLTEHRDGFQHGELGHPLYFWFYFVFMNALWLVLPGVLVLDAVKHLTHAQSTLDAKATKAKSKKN

SMILES | IC50 [nM]
O=S(=O)(c1cc(F)cc(F)c1)N1CCC2(CC1)C[C@@H](N1CC3(COC3)C1)CO2 (single isomer, unassigned) [Example 119b] | 100 to 250
CC1(O)CCN([C@@H]2COC3(CCN(S(=O)(=O)c4cc(C#N)ccc4F)CC3)C2)CC1 (single isomer, unassigned) [Example 141] | 250 to 1500
Cc1cc(C(F)(F)F)ncc1S(=O)(=O)N1CCC2(CC1)CC(N1CCOCC1)CO2 (stereo not drawn) [Example 4] | 250 to 1500
O=S(=O)(c1ccc(F)cc1)N1CCC2(CC1)CC(N1CC3(COC3)C1)CO2 (stereo not drawn) [Example 8] | 250 to 1500
N#Cc1ccc(S(=O)(=O)N2CCC3(CC2)CC(N2CC4(COC4)C2)CO3)c(Cl)c1 (stereo not drawn) [Example 9] | 250 to 1500
COc1ccc(S(=O)(=O)N2CCC3(CCC(N4CC5(COC5)C4)C3)CC2)cc1F (stereo not drawn) [Example 10] | 100 to 250
N#Cc1cccc(S(=O)(=O)N2CCC3(CCC(N4CC5(COC5)C4)C3)CC2)c1 (stereo not drawn) [Example 11] | 100 to 250
O=S(=O)(c1ccc(F)cc1)N1CCC2(CCC(N3CC4(COC4)C3)C2)CC1 (stereo not drawn) [Example 12] | < 100
N#Cc1cc(F)cc(S(=O)(=O)N2CCC3(CCC(N4CC5(COC5)C4)C3)CC2)c1 (stereo not drawn) [Example 13] | 100 to 250
O=S(=O)(c1ccc(OC(F)F)cc1)N1CCC2(CC1)CC(N1CCCCC1)CO2 (stereo not drawn) [Example 14, 8-((4-(Difluoromethoxy)phenyl)sulfonyl)-3-(piperidin-1-yl)-1-oxa-8-azaspiro[4.5]decane] | 250 to 1500
Cc1cc(F)c(S(=O)(=O)N2CCC3(CC2)CC(N2CCOCC2)CO3)c(F)c1 (stereo not drawn) [Example 16] | 250 to 1500
Cc1cc(C(F)(F)F)ccc1S(=O)(=O)N1CCC2(CC1)CC(N1CCOCC1)CO2 (stereo not drawn) [Example 17, 8-((2-Methyl-4-(trifluoromethyl)phenyl)sulfonyl)-3-morpholino-1-oxa-8-azaspiro[4.5]decane] | 250 to 1500
Cc1ccc(F)c(S(=O)(=O)N2CCC3(CC2)CC(N2CCOCC2)CO3)c1 (stereo not drawn) [Example 18, 8-((2-Fluoro-5-methylphenyl)sulfonyl)-3-morpholino-1-oxa-8-azaspiro[4.5]decane] | 100 to 250
O=S(=O)(c1cc(F)ccc1F)N1CCC2(CC1)CC(N1CCOCC1)CO2 (stereo not drawn) [Example 19, 8-((2,5-Difluorophenyl)sulfonyl)-3-morpholino-1-oxa-8-azaspiro[4.5]decane] | 250 to 1500
COc1ccc(S(=O)(=O)N2CCC3(CC2)CC(N2CCOCC2)CO3)c(C)n1 (stereo not drawn) [Example 20, 8-((6-Methoxy-2-methylpyridin-3-yl)sulfonyl)-3-morpholino-1-oxa-8-azaspiro[4.5]decane] | 250 to 1500
Cc1cc(S(=O)(=O)N2CCC3(CCC(N4CCOCC4)C3)CC2)n(C)n1 (stereo not drawn) [Example 21, 4-(8-((1,3-Dimethyl-1H-pyrazol-5-yl)sulfonyl)-8-azaspiro[4.5]decan-2-yl)morpholine] | 100 to 250
O=S(=O)(c1ccc(OC(F)F)cc1)N1CCC2(CCC(N3CCOCC3)C2)CC1 (stereo not drawn) [Example 23, 4-(8-((4-(Difluoromethoxy)phenyl)sulfonyl)-8-azaspiro[4.5]decan-2-yl)morpholine] | 100 to 250
Cn1nc2c(c1S(=O)(=O)N1CCC3(CCC(N4CCOCC4)C3)CC1)COCC2 (stereo not drawn) [Example 24, 2-Methyl-3-((2-morpholino-8-azaspiro[4.5]decan-8-yl)sulfonyl)-2,4,6,7-tetrahydropyrano[4,3-c]pyrazole] | 250 to 1500
Cc1cnc(S(=O)(=O)N2CCC3(CCC(N4CCOCC4)C3)CC2)c(C)c1 (stereo not drawn) [Example 25, 4-(8-((3,5-Dimethylpyridin-2-yl)sulfonyl)-8-azaspiro[4.5]decan-2-yl)morpholine] | 100 to 250
COc1cc(S(=O)(=O)N2CCC3(CCC(N4CCOCC4)C3)CC2)n(C)n1 (stereo not drawn) [Example 26, 4-(8-((3-Methoxy-1-methyl-1H-pyrazol-5-yl)sulfonyl)-8-azaspiro[4.5]decan-2-yl)morpholine] | < 100
O=S(=O)(c1ccc(OC(F)F)cc1)N1CCC2(CCC(N3C[C@H]4C[C@@H]3CO4)C2)CC1 (stereo partly drawn) [Example 27, (1R,4R)-5-(8-((4-(Difluoromethoxy)phenyl)sulfonyl)-8-azaspiro[4.5]decan-2-yl)-2-oxa-5-azabicyclo[2.2.1]heptane] | < 100

SMILES | IC50 [nM]
Cc1cc(C)c(S(=O)(=O)N2CCC3(CC2)CC(N2CCC4(CCOC4)C2)CO3)cn1 (stereo not drawn) [Example 28, 8-((4,6-Dimethylpyridin-3-yl)sulfonyl)-3-(2-oxa-7-azaspiro[4.4]nonan-7-yl)-1-oxa-8-azaspiro[4.5]decane] | 250 to 1500
Cc1cc(S(=O)(=O)N2CCC3(CC2)CC(N2CCC4(CCOC4)C2)CO3)n(C)n1 (stereo not drawn) [Example 29, 8-((1,3-Dimethyl-1H-pyrazol-5-yl)sulfonyl)-3-(2-oxa-7-azaspiro[4.4]nonan-7-yl)-1-oxa-8-azaspiro[4.5]decane] | 250 to 1500
O=S(=O)(c1cc2cccnc2cc1F)N1CCC2(CCC(N3CCOCC3)C2)CC1 (stereo not drawn) [Example 31, 4-(8-((7-fluoroquinolin-6-yl)sulfonyl)-8-azaspiro[4.5]decan-2-yl)morpholine] | 100 to 250
O=S(=O)(c1ccc(OC2CC2)cn1)N1CCC2(CCC(N3CCOCC3)C2)CC1 (stereo not drawn) [Example 32, 4-(8-((5-Cyclopropoxypyridin-2-yl)sulfonyl)-8-azaspiro[4.5]decan-2-yl)morpholine] | 250 to 1500
COc1nccc(S(=O)(=O)N2CCC3(CCC(N4CCOCC4)C3)CC2)c1F (stereo not drawn) [Example 33, 4-(8-((3-Fluoro-2-methoxypyridin-4-yl)sulfonyl)-8-azaspiro[4.5]decan-2-yl)morpholine] | < 100
COCCN(C)C1CCC2(CCN(S(=O)(=O)c3cc(C)cnc3OC)CC2)C1 (stereo not drawn) [Example 40] | 100 to 250
COc1ncc(C)cc1S(=O)(=O)N1CCC2(CCC(NC3(C)COC3)C2)CC1 (stereo not drawn) [Example 41] | 100 to 250
COc1ncc(C)cc1S(=O)(=O)N1CCC2(CCC(NC3(C)CCOC3)C2)CC1 (stereo not drawn) [Example 42] | < 100
COc1ncc(C)cc1S(=O)(=O)N1CCC2(CCC(N3CC4(CCOC4)C3)C2)CC1 (stereo not drawn) [Example 43] | < 100
COCCNC1COC2(CCN(S(=O)(=O)c3cc(C#N)ccc3F)CC2)C1 (stereo not drawn) [Example 44, 4-Fluoro-3-((3-((2-methoxyethyl)amino)-1-oxa-8-azaspiro[4.5]decan-8-yl)sulfonyl)benzonitrile] | 250 to 1500
N#Cc1ccc(F)c(S(=O)(=O)N2CCC3(CC2)CC(N2C[C@H]4C[C@@H]2CO4)CO3)c1 (stereo partly drawn) [Example 45, 3-((3-((1R,4R)-2-oxa-5-azabicyclo[2.2.1]heptan-5-yl)-1-oxa-8-azaspiro[4.5]decan-8-yl)sulfonyl)-4-fluorobenzonitrile] | 250 to 1500
N#Cc1ccc(F)c(S(=O)(=O)N2CCC3(CC2)CC(N2CC4(COC4)C2)CO3)c1 (stereo not drawn) [Example 46, 3-((3-(2-Oxa-6-azaspiro[3.3]heptan-6-yl)-1-oxa-8-azaspiro[4.5]decan-8-yl)sulfonyl)-4-fluorobenzonitrile] | 250 to 1500
N#Cc1ccc(F)c(S(=O)(=O)N2CCC3(CC2)CC(N2CCCCC2)CO3)c1 (stereo not drawn) [Example 47, 4-Fluoro-3-((3-(piperidin-1-yl)-1-oxa-8-azaspiro[4.5]decan-8-yl)sulfonyl)benzonitrile] | 100 to 250
N#Cc1ccc(F)c(S(=O)(=O)N2CCC3(CC2)CC(NC2CCC(F)(F)CC2)CO3)c1 (stereo not drawn) [Example 48, 3-((3-((4,4-Difluorocyclohexyl)amino)-1-oxa-8-azaspiro[4.5]decan-8-yl)sulfonyl)-4-fluorobenzonitrile] | 100 to 250
Cc1ccc(S(=O)(=O)N2CCC3(CC2)CC(N2CC(C)(O)C2)CO3)c(Cl)c1 (stereo not drawn) [Example 50, 1-(8-((2-Chloro-4-methylphenyl)sulfonyl)-1-oxa-8-azaspiro[4.5]decan-3-yl)-3-methylazetidin-3-ol] | 100 to 250
Cc1ccc(S(=O)(=O)N2CCC3(CC2)CC(NC2CCOCC2)CO3)c(Cl)c1 (stereo not drawn) [Example 51, 8-((2-Chloro-4-methylphenyl)sulfonyl)-N-(tetrahydro-2H-pyran-4-yl)-1-oxa-8-azaspiro[4.5]decan-3-amine] | < 100
Cc1ccc(S(=O)(=O)N2CCC3(CC2)CC(N2CC(O)C2)CO3)c(Cl)c1 (stereo not drawn) [Example 52, 1-(8-((2-Chloro-4-methylphenyl)sulfonyl)-1-oxa-8-azaspiro[4.5]decan-3-yl)azetidin-3-ol] | 100 to 250
Cc1cc(OC(F)(F)F)ccc1S(=O)(=O)N1CCC2(CC1)CC(N1CCOCC1)CO2 (stereo not drawn) [Example 54, 8-((2-Methyl-4-(trifluoromethoxy)phenyl)sulfonyl)-3-morpholino-1-oxa-8-azaspiro[4.5]decane] | 250 to 1500
COC1CN(C2COC3(CCN(S(=O)(=O)c4cnc(C5CC5)s4)CC3)C2)C1 (stereo not drawn) [Example 55, 8-((2-Cyclopropylthiazol-5-yl)sulfonyl)-3-(3-methoxyazetidin-1-yl)-1-oxa-8-azaspiro[4.5]decane] | 250 to 1500
Cn1nc(C2CC2)cc1S(=O)(=O)N1CCC2(CC1)CC(N1CC3(COC3)C1)CO2 (stereo not drawn) [Example 56, 8-((3-Cyclopropyl-1-methyl-1H-pyrazol-5-yl)sulfonyl)-3-(2-oxa-6-azaspiro[3.3]heptan-6-yl)-1-oxa-8-azaspiro[4.5]decane] | 100 to 250
COC1CN(C2COC3(CCN(S(=O)(=O)c4cc(C5CC5)nn4C)CC3)C2)C1 (stereo not drawn) [Example 58, 8-((3-Cyclopropyl-1-methyl-1H-pyrazol-5-yl)sulfonyl)-3-(3-methoxyazetidin-1-yl)-1-oxa-8-azaspiro[4.5]decane] | 250 to 1500
